Measurements: PMC9143562, “Hydrophilic CO-Releasing Material of PEGlyated Ruthenium Carbonyl Complex” (Materials, 2022)
Each block holds one molecule with its values, some of them ahead of it.

Assays:
[1] = cited from earlier work
[2] = tested on: acute hepatic ischemia-reperfusion injury; set-up: method as in PMID 20444253, PMID 21270767; details: rats; serum AST/ALT, liver histology score; cited from earlier work
[3] = human plasma; cited from earlier work
[4] = logP by flask-shaking method (n-octanol/water, UV-vis); assay type: physicochemical; details: for logP: oil-water partition coefficient, n-octanol/water, by UV-vis
Experimental: To identify the structural features of CO-RMs that govern the CO releasing behaviour, the CO release kinetics of 4–15 were correlated to the corresponding M-CO band and lipophilicity in Table 2. Firstly, the oil-water partition coefficient logP values of complexes were measured by the “flask-shaking” method with n-octanol and water, respectively. […] The water-solubility of these sawhorse ruthenium complexes mainly depend on both the axial glycol amino esters and bridging carboxylate, respectively. […]
4. Water-solubility Measured by the ﬂask - shaking method
The lipophilicity of complexes was measured by the ﬂask- shaking method where n-octanol and ultrapure water were used as the organic and aqueous phase respectively. First, make the pre saturated of oil-water two phase. Then the tested complex was dissolved in the isolated organic phase at a concentration of 1mg/mL, take 2 mL of liquld and 8mL aqueous phase was joined, the mixture was swirled for 12h at room temperature. The solution was then centrifuged, and the amounts of complex in organic layers were determined by UV-vis. Drawing standard curve and determination of oil-water partition coefficient. […]
5.4 UV-vis spectra of Lipophilicity (log Po/w)
Table S3. Stand curve measurement and calculation of Log P
Entry Standard curve equation Correlation coefficient(R2) […]

[5] = tested on: myoglobin (lyophilised horse heart); experiment: Photo-activated CO release, myoglobin assay; details: CO release half-life, 60 µM CO-RM, LED-UV 365 nm, PBS pH 7.4
Experimental: The CO release activity of each CO-RM […] was measured with the “golden standard” of myoglobin assay. Firstly, sodium dithionite was added to reduce myoglobin to deoxy-myoglobin (deoxyMb) in PBS (pH = 7.4) at 37.8 °C. A stock solution of CO-RM was added and then activated by LED-UV radiation at 365 nm, releasing CO […]. The change of deoxyMb to carbonmonoxy-myoglobin (MbCO) was monitored by UV-vis spectroscopy. […] The half-lives of CO release rate of 4 at 60 µM is 166 s, 40 µM is 172 s, and 20 µM is 267 s. […]
3. CO-Release Measured by Standard Myoglobin Assay
The release of CO from the metal carbonyl compounds was studied by measuring the conversion of deoxy-myoglobin (deoxy-Mb) to carboxy-myoglobin (Mb-CO). The amount of Mb-CO formed was quantified by measuring the absorbance at 540 nm. […] A 2 mL quantity of this was measured to obtain a deoxy-Mb spectrum and then bubbled with CO to get a Mb-CO spectrum. […] The concentration of myoglobin in the stock solution was calculated from the maximal absorption peak of the Mb-CO solution at 540 nm (Equation 1).
Equation 1. Equation for calculating total myoglobin concentration in a saturated solution of Mb-CO; ε = extinction coefficient of Mb-CO=15.4 mM-1cm-1, OD540 = absorbance of Mb-CO solution […]
Intermediate concentrations of Mb-CO are calculated from the OD540. […] The new extinction coefficient was calculated (Equation 2). […]

Molecule: [C-]#[O+].[C-]#[O+].[C-]#[O+].[C-]#[O+].[C-]#[O+].[C-]#[O+].[Cl][Ru][Cl].[Cl][Ru][Cl] [CO-RM-02, [Ru(CO)3Cl2]2]
solubility in aqueous systems [1]: poor solubility
effect on acute hepatic ischemia-reperfusion injury [2]: attenuated acute hepatic ischemia-reperfusion injury in rats

Molecule: NCC(=O)O.[C-]#[O+].[C-]#[O+].[C-]#[O+].[Cl][Ru] [CO-RM-03, [Ru(CO)3Cl(glycinate)]]
half-life of CO release [3]: 3.6 min

logP [4]: too hydrophobic to be evaluated
Molecule: [Ru2(CO)4(µ2-ŋ2-O2C-C14H9)2 (ŋ1-NH2CH2C(=O)OCH2CH2OCH3)2] [CO-RM 15]

Coctanol ([4]; concentration in n-octanol phase, UV-vis): 0.9201 mmol/L
Cwater ([4]; concentration in water phase): 0.05055 mmol/L
logP [4]: 1.26
t1/2, 60 µM [5]: 966 s
Molecule: [Ru2(CO)4(µ2-ŋ2-O2C-p-ClC6H5)2 (ŋ1-NH2CH2C(=O)OCH2CH2OCH3)2] [CO-RM 13]
